The values that follow come from paper PMC4815073, “Targeting of tubulin polymerization and induction of mitotic blockage by Methyl 2-(5-fluoro-2-hydroxyphenyl)-1H-benzo[d]imidazole-5-carboxylate (MBIC) in human cervical cancer HeLa cell” (Journal of Experimental & Clinical Cancer Research : CR, 2016).

For test [1], the system named is HeLa cells. Put plainly: MTT cytotoxicity assay, HeLa. The class given is cell-based, human. The settings on record: for IC50: HeLa, MTT; for SI (Selectivity Index): IC50 WRL-68 / IC50 HeLa. An excerpt: (§1) The human cervical cancer cell-line, HeLa (CCL-2.2; ATCC, Manassas, VA), HCT-116 (CCL-247; ATCC, Manassas, VA), A549 (CCL-185; ATCC, Manassas, VA), HepG-2 (HB-8065; ATCC, Manassas, VA) and WRL-68 (CL-48; ATCC, Manassas, VA), were obtained from American Type Culture Collection (ATCC). HeLa, A549, HepG2 and WRL68 cells were maintained in Dulbecco’s Modified Eagle Medium (DMEM, Life Technologies, Inc, Rockville, MD). HCT-116 was obtained in McCoy’s 5a Medium Modified (Life Technologies, Inc, Rockville, MD) supplemented with 10 % fetal bovine serum and 1 % penicillin/streptomycin. Cells were incubated at 37 °C in a humidified cell culture 5 % CO2 incubator. Cells were passaged until reaching 70-80-% confluency for experimental purposes.
(§2) Cytotoxicity of MBIC was estimated by MTT assay. Briefly, 1 × 10^4 cells/well were seeded in a 96-well plate and incubated at 37 °C in 5 % CO2. After 24 h, cells were treated with different concentrations (0.02, 0.04, 0.1, 0.2, 0.4, 0.8, 1.5, 3, 6, 12, 25, 50 μM) of MBIC. 0.01 % DMSO was used as vehicle control. Cells were incubated for 24 and 48 h at 37 °C. Subsequently, 50 μl/well of 3-(4,5-dimethylthiazol-2-yl)-2,5-diphenyltetrazolium bromide (MTT, 2 mg/ml) was added and incubated for 2 h. After the incubation, the media was discarded and 100 μl DMSO was replaced into each well to dissolve the formazan crystal. The colorimetric assay was quantified at 570 nm wavelength using Chameleon V microplate reader (Hidex, Turku, Finland). The anti-proliferation activity of MBIC was expressed as an IC50 value. The percentage of cell viability was calculated as described previously.
Background: Tetrazolium dyes change colour on reduction, which living cells bring about.

A further test relates to HCT-116 cells. As to the kind of experiment: MTT cytotoxicity assay, HCT-116. The class given is cell-based, human. As to conditions: for IC50: MTT.
Excerpt: as §1, §2

A further test has as its system A549 cells. As to the kind of experiment: MTT cytotoxicity assay, A549. The class given is cell-based, human. The settings on record: for IC50: MTT.
Excerpt: as §1, §2

For the next test, the system named is HepG-2 cells. As to the kind of experiment: MTT cytotoxicity assay, HepG-2. The class given is cell-based, human. As to conditions: for IC50: MTT.
Excerpt: as §1, §2

In another test the test system is WRL-68 cells. As to the kind of experiment: MTT cytotoxicity assay, WRL-68 normal liver cells. It is filed as cell-based, human.
Excerpt: as §1, §2

Test [2] has as its system HeLa cells. As to the kind of experiment: Drug combination assay (MTT, Chou-Talalay, CampuSyn). It is filed as cell-based. The settings on record: Homo sapiens, 24 h, drug alone, read-out: (Dm)IC50 Drug 1 (conventional drug alone). As to the method: In order to discover the synergistic effects of MBIC with conventional drugs briefly, cells were seeded in 1 × 10^4 cells/well and were incubated at 37 °C overnight. […] Also, the MBIC, combined with each of the selected conventional drugs in a 1:1 ratio, were diluted in concentration from 50 μM to 0.1 μM. Cell viability assay (MTT assay) was performed 24 h post-treatment and absorbance were measured in a microplate reader to find out the IC50 for each conventional drug alone and in combination with MBIC on HeLa cells. For this analysis, we used the commercial software package CampuSyn (Biosoft, Cambridge, United Kingdom; Ref.9). […] Furthermore, the software produced an automated isobologram and fraction affected-combination index (Fa-CI) plot.

For test [3], the system named is HeLa cells expressing EGFP-α-tubulin, EGFP-CENP-A and histone H2B-mCherry. Put plainly: Live-cell imaging of mitotic spindle. The class given is cell-based, human. The settings on record: MBIC 10 μM, nocodazole 2 μM; imaged at 15 min intervals. As to the method: HeLa cells expressing EGFP-α-tubulin, EGFP-CENP-A and histone H2B-mCherry were grown in glass chambers (Thermo Scientific, USA). Thirty minutes before imaging, the medium was changed to pre-warmed Leibovitz’s L-15 medium (Life Technologies) supplemented with 20 % fetal bovine serum and 20 mM HEPES, pH 7.0. Recordings were made in a temperature-controlled incubator at 37 °C. Images were collected with an Olympus IX-71 inverted microscope (Olympus) controlled by DeltaVision softWoRx (Applied Precision) using a 20x 0.75 NA UPlan SApochromat objective lens (Olympus). Z-series of six sections in 3 μm increments were captured every 15 min. Image stacks were projected.

Another test deals with T1, tubulin (Sus scrofa, UniProt P02550+P02554).
T1 construct: purchased Cytoskeleton BK011P
Put plainly: Tubulin polymerization assay. As to conditions: 10 μM drug, 3 mg/ml tubulin, 37 °C, 340 nm; untreated 12 mOD/min. It is filed as biochemical. The method, then:
To investigate the effect of MBIC on tubulin polymerization, a fluorescence-based tubulin polymerization assay kit (Cytoskeleton-Cat. # BK011P) was used according to the manufacturer’s protocol. Briefly, 200 μl of pure tubulin protein was re-suspended in 420 μl of ice cold Tubulin Polymerization Buffer (TPB) to give a final concentration of 3 mg/ml tubulin, supplemented with 80 mM PIPES, 2 mM MgCl2, 0.5 mM EGTA, 1 mM GTP, 20 % (v/v) glycerol. 100 μl of tubulin reaction mixture were added to each well in a 96-well plate containing the selected concentration of MBIC (10 μM). […] Samples were mixed well and the tubulin assembly was monitored by an increase in fluorescence emission at 340 nm in kinetic mode for 120 min at 37 °C using a plate reader (Infinite® 200 PRO—Tecan plate reader, USA).

Where [4] appears, read: IC50 WRL-68 / IC50 HCT-116, 24 hours.
The mark [5] stands for this setting: IC50 WRL-68 / IC50 HCT-116, 48 hours.
The mark [6] stands for this setting: IC50 WRL-68 / IC50 A549, 24 hours.
Where [7] appears, read: IC50 WRL-68 / IC50 A549, 48 hours.
The mark [8] stands for this setting: IC50 WRL-68 / IC50 HepG-2, 24 hours.
The mark [9] stands for this setting: IC50 WRL-68 / IC50 HepG-2, 48 hours.
[10] abbreviates: Homo sapiens, HCT-116, 24 hours.
Where [11] appears, read: Homo sapiens, HCT-116, 48 hours.
Where [12] appears, read: Homo sapiens, HepG2, HepG-2, 24 hours.
[13] abbreviates: Homo sapiens, HepG2, HepG-2, 48 hours.

T1 sequence (P02550 whole entry): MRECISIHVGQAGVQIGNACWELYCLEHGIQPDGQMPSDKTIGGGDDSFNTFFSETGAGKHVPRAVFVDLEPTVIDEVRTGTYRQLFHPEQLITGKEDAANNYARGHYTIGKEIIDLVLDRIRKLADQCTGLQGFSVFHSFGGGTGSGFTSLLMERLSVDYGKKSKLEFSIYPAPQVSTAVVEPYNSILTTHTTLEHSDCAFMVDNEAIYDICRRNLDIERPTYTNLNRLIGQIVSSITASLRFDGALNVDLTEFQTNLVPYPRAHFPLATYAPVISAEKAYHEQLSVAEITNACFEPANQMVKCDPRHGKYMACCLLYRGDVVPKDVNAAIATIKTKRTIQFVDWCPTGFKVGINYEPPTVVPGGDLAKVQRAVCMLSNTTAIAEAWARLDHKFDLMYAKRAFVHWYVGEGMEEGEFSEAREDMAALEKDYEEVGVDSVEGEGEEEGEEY
T1 sequence (P02554 whole entry): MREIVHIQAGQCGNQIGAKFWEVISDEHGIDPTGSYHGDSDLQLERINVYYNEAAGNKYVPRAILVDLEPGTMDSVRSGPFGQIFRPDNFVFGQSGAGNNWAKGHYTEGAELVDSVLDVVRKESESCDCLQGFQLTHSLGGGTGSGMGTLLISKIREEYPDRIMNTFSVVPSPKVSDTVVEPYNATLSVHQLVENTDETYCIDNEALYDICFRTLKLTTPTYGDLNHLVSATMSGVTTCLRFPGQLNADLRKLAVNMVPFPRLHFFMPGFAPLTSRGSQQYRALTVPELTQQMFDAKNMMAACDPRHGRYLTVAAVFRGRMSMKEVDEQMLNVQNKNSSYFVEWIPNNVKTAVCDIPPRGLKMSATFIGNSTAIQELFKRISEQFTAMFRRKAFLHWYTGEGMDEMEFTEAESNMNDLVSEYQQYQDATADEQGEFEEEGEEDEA

The IC50 is the midpoint of a concentration-inhibition curve. Consider `N.N.[Cl][Pt][Cl]` [Cisplatin], for which the IC50 was determined as 15.07 ± 0.03 µM in the test on HeLa cells [1] (24 hours); 9.02 ± 0.02 µM in the test with HeLa cells [1] (48 hours); 7.22 ± 0.5 µM with HCT-116 cells (HCT-116, 24 hours); 4.12 ± 0.6 µM in the test on HCT-116 cells (HCT-116, 48 hours); 34 ± 0.9 µM in the test on A549 cells (A549, 24 hours); 19.5 ± 1.4 µM with A549 cells (A549, 48 hours). The IC50 in the test on HepG-2 cells (HepG-2, 24 hours) stood at 10.3 ± 0.5 µM; in the test on HepG-2 cells (HepG-2, 48 hours), 5.93 ± 0.2 µM; with WRL-68 cells (24 hours), 18.6 ± 1.4 µM; in the test on WRL-68 cells (48 hours), 10.6 ± 0.7 µM. Further, the “SI (Selectivity Index)” value is reported as 1.23 in the test with HeLa cells [1] (24 hours); 1.17 with HeLa cells [1] (48 hours); 2.57 in the test with HCT-116 cells (setting [4]); 2.56 in the test with HCT-116 cells (setting [5]); 0.54 in the test with A549 cells (setting [6]); 0.54 with A549 cells (setting [7]). For the same compound, the “SI (Selectivity Index)” value with HepG-2 cells (setting [8]) is given as 1.80; with HepG-2 cells (setting [9]), 1.78.

On to `COc1cccc2c1C(=O)c1c(O)c3c(c(O)c1C2=O)C[C@@](O)(C(=O)CO)C[C@@H]3O[C@H]1C[C@H](N)[C@H](O)[C@H](C)O1` [Doxorubicin], for which the IC50 came to 0.46 ± 0.04 µM in the test with HeLa cells [1] (Homo sapiens, 24 hours); 0.29 ± 0.04 µM in the test on HeLa cells [1] (Homo sapiens, 48 hours); 0.91 ± 0.2 µM in the test with HCT-116 cells (setting [10]); 0.47 ± 0.3 µM in the test with HCT-116 cells (setting [11]); 0.35 ± 0.07 µM with A549 cells (Homo sapiens, A549, 24 hours); 0.09 ± 0.01 µM with A549 cells (Homo sapiens, A549, 48 hours). For the same compound, the IC50 in the test with HepG-2 cells (setting [12]) amounted to 8.04 ± 0.8 µM; in the test on HepG-2 cells (setting [13]), 3.94 ± 0.07 µM; in the test with WRL-68 cells (Homo sapiens, WRL68, 24 hours), 3.56 ± 0.9 µM; in the test on WRL-68 cells (Homo sapiens, WRL68, 48 hours) it was 1.68 ± 0.09 µM; in the test with HeLa cells [2], 0.46 ± 0.7 µM. Further, the “SI (Selectivity Index)” value in the test on HeLa cells [1] (24 hours) came to 7.73; with HeLa cells [1] (48 hours), 5.79; in the test on HCT-116 cells (setting [4]), 3.91; in the test with HCT-116 cells (setting [5]) it was 3.57; in the test on A549 cells (setting [6]), 10.17; with A549 cells (setting [7]), 18.66. Besides, the figures for the “SI (Selectivity Index)” value with HepG-2 cells (setting [8]) and with HepG-2 cells (setting [9]) were 0.44 and 0.42, respectively.

`COC(=O)Nc1nc2ccc(C(=O)c3cccs3)cc2[nH]1` [Nocodazole]: the IC50 with HeLa cells [1] (Homo sapiens, 24 hours) stood at 3.08 ± 0.02 µM; in the test on HeLa cells [1] (Homo sapiens, 48 hours) it was 2.22 ± 0.04 µM; with HCT-116 cells (setting [10]), 3.81 ± 0.6 µM; in the test on HCT-116 cells (setting [11]) it was 1.81 ± 0.3 µM; in the test with A549 cells (Homo sapiens, A549, 24 hours), 12.2 ± 0.2 µM; with A549 cells (Homo sapiens, A549, 48 hours) it was 5.09 ± 0.5 µM. Also, the IC50 was found to be 10.7 ± 0.5 µM in the test with HepG-2 cells (setting [12]); 5.08 ± 0.3 µM with HepG-2 cells (setting [13]); 12.2 ± 0.9 µM in the test with WRL-68 cells (Homo sapiens, WRL68, 24 hours); 7.56 ± 0.3 µM in the test on WRL-68 cells (Homo sapiens, WRL68, 48 hours); 3.08 ± 0.5 µM in the test with HeLa cells [2]. For the same compound, the “SI (Selectivity Index)” value in the test on HeLa cells [1] (24 hours) came to 3.97; with HeLa cells [1] (48 hours), 3.40; with HCT-116 cells (setting [4]), 3.20; with HCT-116 cells (setting [5]), 4.17; with A549 cells (setting [6]), 1.00; in the test with A549 cells (setting [7]), 1.48. Further, the “SI (Selectivity Index)” value came to 1.14 with HepG-2 cells (setting [8]) and 1.48 with HepG-2 cells (setting [9]). Also, in test [3], the “mitotic spindle formation in live-cell imaging” value is “did not form the spindle”. For the same compound, the “Tubulin polymerization maximal velocity (Vmax)” value at tubulin worked out at 3 mOD/min.

Regarding `CC(=O)O[C@H]1C(=O)[C@@]2(C)[C@H]([C@H](OC(=O)c3ccccc3)[C@]3(O)C[C@H](OC(=O)[C@H](O)[C@@H](NC(=O)c4ccccc4)c4ccccc4)C(C)=C1C3(C)C)[C@]1(OC(C)=O)CO[C@@H]1C[C@@H]2O` [Paclitaxel], the IC50 in the test with HeLa cells [1] (Homo sapiens, 24 hours) was 1.02 ± 0.01 µM; in the test on HeLa cells [1] (Homo sapiens, 48 hours), 0.57 ± 0.03 µM; in the test with HCT-116 cells (setting [10]), 3.09 ± 0.5 µM; in the test with HCT-116 cells (setting [11]) it was 1.09 ± 0.4 µM; with A549 cells (Homo sapiens, A549, 24 hours) it was 2.83 ± 0.11 µM; with A549 cells (Homo sapiens, A549, 48 hours), 1.23 ± 0.09 µM. Also, the IC50 worked out at 2.81 ± 0.72 µM in the test with HepG-2 cells (setting [12]); 1.03 ± 0.07 µM in the test with HepG-2 cells (setting [13]); 6.71 ± 0.2 µM in the test with WRL-68 cells (Homo sapiens, WRL68, 24 hours); 3.41 ± 0.8 µM in the test on WRL-68 cells (Homo sapiens, WRL68, 48 hours); 1.02 ± 0.6 µM in the test with HeLa cells [2]. The “SI (Selectivity Index)” value in the test with HeLa cells [1] (24 hours) is on record as 6.57; in the test with HeLa cells [1] (48 hours), 5.98; in the test on HCT-116 cells (setting [4]), 2.17; in the test on HCT-116 cells (setting [5]), 3.12; with A549 cells (setting [6]), 2.37; with A549 cells (setting [7]), 2.77. In addition, the “SI (Selectivity Index)” value is reported as 2.38 with HepG-2 cells (setting [8]) and 3.31 with HepG-2 cells (setting [9]). Further, the “Tubulin polymerization maximal velocity (Vmax)” value on tubulin is recorded as 33 mOD/min.
